Assay results from US8278452B2, “Heterocyclic compounds and compositions as c-kit and PDGFR kinase inhibitors” (IRM LLC, priority 2008, dated 2012).

What follows are compounds tested on Mo7e cells which endogenously express c-kit (assay: Mo7e assay: inhibition of SCF dependent proliferation (MTT)). Conditions: Table 1; SCF stimulated Mo7e cells, 48 hours, MTT.
Type: cell-based
Method in brief: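 Mo7e cells stimulated with human recombinant SCF and exposed to two-fold serial compound dilutions from a top concentration of 10 μM. After 48 h at 37 °C, viability measured by MTT colorimetric assay; IC50 derived.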

SMILES	IC50
Cc1cc2c(cn1)cc(-c1cc(Nc3noc(-c4cccc(O)c4)n3)ccc1C)c(=O)n2C [Compound A39, 3-(5-{[5-(3-hydroxyphenyl)-1,2,4-oxadiazol-3-yl]amino}-2-methylphenyl)-1,7-dimethyl-1,2-dihydro-1,6-naphthyridin-2-one]	480 nM
Cc1cc2c(cn1)cc(-c1cc(Nc3noc([C@H]4C[C@@](C)(O)C4)n3)ccc1C)c(=O)n2C [Compound A101, 3-(5-{[5-(3-hydroxy-3-methylcyclobutyl)-1,2,4-oxadiazol-3-yl]amino}-2-methylphenyl)-1,7-dimethyl-1,2-dihydro-1,6-naphthyridin-2-one]	205 nM
COc1ccc(-c2nnc(Nc3ccc(C)c(-c4cc5cnc(C)cc5n(C)c4=O)c3)o2)cc1 [Compound B2, 3-(5-{[5-(4-methoxyphenyl)-1,3,4-oxadiazol-2-yl]amino}-2-methylphenyl)-1,7-dimethyl-1,2-dihydro-1,6-naphthyridin-2-one]	85 nM
Cc1cc2c(cn1)cc(-c1cc(Nc3noc([C@@H]4CCCO4)n3)ccc1C)c(=O)n2C [Compound A77, (S)-1,7-dimethyl-3-(2-methyl-5-(5-(tetrahydrofuran-2-yl)-1,2,4-oxadiazol-3-ylamino)phenyl)-1,6-naphthyridin-2(1H)-one]	27 nM
Cc1cc2c(cn1)cc(-c1cc(Nc3noc(-c4cccc(C)n4)n3)ccc1C)c(=O)n2C [Compound A47, 1,7-dimethyl-3-(2-methyl-5-{[5-(6-methylpyridin-2-yl)-1,2,4-oxadiazol-3-yl]amino}phenyl)-1,2-dihydro-1,6-naphthyridin-2-one]	311 nM
Cc1cc2c(cn1)cc(-c1cc(Nc3nnc(-c4ccccc4)o3)ccc1C)c(=O)n2C [Compound B4, 1,7-dimethyl-3-(2-methyl-5-(5-phenyl-1,3,4-oxadiazol-2-ylamino)phenyl)-1,6-naphthyridin-2(1H)-one]	105 nM
Cc1cc2c(cn1)cc(-c1cc(Nc3nnc(-c4ccccc4)s3)ccc1C)c(=O)n2C [Compound H1, 1,7-dimethyl-3-(2-methyl-5-(5-phenyl-1,3,4-thiadiazol-2-ylamino)phenyl)-1,6-naphthyridin-2(1H)-one]	552 nM
Cc1cc2c(cn1)cc(-c1cc(Nc3cc(-c4ccccn4)on3)ccc1C)c(=O)n2C [Compound D3]	158 nM
Cc1cc2c(cn1)cc(-c1cc(Nc3noc(-c4cc(C)oc4C)n3)ccc1C)c(=O)n2C [Compound A2, 3-(5-{[5-(2,5-dimethylfuran-3-yl)-1,2,4-oxadiazol-3-yl]amino}-2-methylphenyl)-1,7-dimethyl-1,2-dihydro-1,6-naphthyridin-2-one]	126 nM
Cc1cc2c(cn1)cc(-c1cc(Nc3noc(-c4ncccc4C)n3)ccc1C)c(=O)n2C [Compound A79, 1,7-dimethyl-3-(2-methyl-5-{[5-(3-methylpyridin-2-yl)-1,2,4-oxadiazol-3-yl]amino}phenyl)-1,2-dihydro-1,6-naphthyridin-2-one]	94 nM
Cc1cc2c(cn1)cc(-c1cc(Nc3cc(-c4ccc(Br)cn4)on3)ccc1C)c(=O)n2C [Compound D6]	229 nM
Cc1cc2c(cn1)cc(-c1cc(Nc3noc(-c4ccc(C(C)(F)F)nc4)n3)ccc1C)c(=O)n2C [Compound A88, 3-[5-({5-[6-(1,1-difluoroethyl)pyridin-3-yl]-1,2,4-oxadiazol-3-yl}amino)-2-methylphenyl]-1,7-dimethyl-1,2-dihydro-1,6-naphthyridin-2-one]	259 nM
Cc1cc2c(cn1)cc(-c1cc(Nc3noc(C4CCC(O)C4)n3)ccc1C)c(=O)n2C (centres unmarked) [Compound A73, 3-(5-(5-(3-hydroxycyclopentyl)-1,2,4-oxadiazol-3-ylamino)-2-methylphenyl)-1,7-dimethyl-1,6-naphthyridin-2(1H)-one]	178 nM
Cc1cc2c(cn1)cc(-c1cc(Nc3noc(-c4cccnc4F)n3)ccc1C)c(=O)n2C [Compound A91, 3-(5-{[5-(2-fluoropyridin-3-yl)-1,2,4-oxadiazol-3-yl]amino}-2-methylphenyl)-1,7-dimethyl-1,2-dihydro-1,6-naphthyridin-2-one]	244 nM
